Measurements published in patent US7879898B1, “Hepatocyte growth factor pathway activators in chronic obstructive pulmonary disease” (Angion Biomedica Corp., priority 2006, dated 2011).

Assays:
[1] = tested on: bovine pulmonary endothelial cells (bPAEC); assay: 3H-thymidine incorporation cell proliferation assay in bPAEC combined with c-Met siRNA; format: cell-based; details: serial dilutions of 5-((E)-2-thiophen-2-yl-vinyl)-1H-pyrazole or HGF; with c-Met siRNA knockdown; FIG. 1B-C
Procedure: Compounds promote proliferation of pulmonary endothelial cells specifically through c-Met. Proliferation of pulmonary endothelial cells is one of the important pulmotrophic activities of HGF. […] First, a c-Met siRNA was used with a lipo-transfecting reagent to knock down the c-Met mRNA level in bPAEC cells, and real time RT-PCR conducted to measure the effect. The c-Met siRNA can knock down ˜90% of c-Met mRNA at a c-Met siRNA concentration as low as 50 nM. Next, the siRNA knockdown condition established from the first step was used to decrease >=90% of c-Met mRNA in bPAEC by using 100 nM of the c-Met siRNA pool, and subsequently ^3H-thymidine incorporation assay was performed in the bPAEC cells.
Shown in FIG. 1B-C, ˜5,000/well bPAEC were plated in 96 well plates. The steps as described above were continued until 24 h after adding the mixture of siRNAs and lipofectamine. Then the medium was changed with the fresh mixture of siRNAs and lipofectamine containing serial dilutions of the compound 5-((E)-2-thiophen-2-yl-vinyl)-1H-pyrazole or HGF, incubated another 24 h, 100 ul of ^3H-thymidine(1uCi/ml) was added and incubation continued overnight. Then, 100 ul/well Trypsin/EDTA was added, and ^3H-thymidine incorporation analysis was conducted using an auto-harvester and Topcount NXT v2.12 instrument.

[2] = tested on: bovine pulmonary endothelial cells (bPAEC); assay: CytoSelect 24-well cell migration assay of bPAEC; format: cell-based; details: 24 h; multiple concentrations; FIG. 2
Procedure: Another important pulmotrophic activity of HGF is to stimulate migration of pulmonary endothelial cells. Again, bPAEC cells were used to test if test compound, like HGF, can stimulate migration of the cells. The CytoSelect 24-well cell migration assay (Cell Biolabs, Inc.) was used to measure the migration of bPAEC cells according to the kit manual.
CytoSelect 24-well cell migration assay kit (Cell Biolabs, Inc.) was used. Briefly, ˜300,000 cells/chamber were seeded in serum-free medium and put into a larger well containing medium with no-serum (C), serum, HGF, compound at multiple concentrations (see above), respectively, and incubated for 24 h. The medium was then aspirated from the chamber and then carefully and completely, the cells on the inner surface of the membrane were removed with cotton and the membrane washed twice. The migrated cells were stained and quantified by measuring OD at 560 nm. The mean values from bouble wells for each compound are shown.

“HGF: hepatocyte growth factor (HGF; also known as scatter factor), acts through its receptor c-Met” was tested, and the “proliferation of bPAEC cells (3H-thymidine incorporation)” value [1] was “promote proliferation of bPAEC cells specifically through HGF receptor c-Met” and the “migration of bPAEC cells (OD at 560 nM)” value [2] was “stimulates bPAEC cells migration”.
